This is an account of results in patent US10988523B2, “Modified lipidated Relaxin B chain peptides and their therapeutic use” (Sanofi, priority 2018, dated 2021).

*1 amine or outer side, *2 acyl side, *3 side chain or, on linkers, in order; H or OH if unused. Where a SMILES comes first, the peptide text is derived from it. Side-chain parts run from the residue outwards. [ ]: non-standard residue; d: D form. The star is where a group is joined. X9 = CCCCCCCCCCCCCCCCCC(=O)N[C@@H](CCC(=O)N[C@@H](CCC(=O)N[C@@H](CCC(=O)NCCCC[C@H](NC(=O)COCC(=O)NCCCOCCOCCOCCCN*)C(N)=O)C(=O)O)C(=O)O)C(=O)O; PEG12 = NCCOCCOCCOCCOCCOCCOCCOCCOCCOCCOCCOCCOCCC(=O)O; γGlu = O=C(O)[C@H](CCC(=O)[*:2])N[*:1]; Stearoyl = CCCCCCCCCCCCCCCCCC(=O)*; Palmitoyl = CCCCCCCCCCCCCCCC(=O)*; Nle = CCCC[C@H](N)C(=O)O; AEEA = NCCOCCOCC(=O)O; Aib = CC(C)(N)C(=O)O

This assay addresses T1, RXFP1 (Homo sapiens, UniProt Q9HBX9).
T1 construct: OVCAR5 cells expressing endogenous RXFP1; endogenous in cells; host or cells: OVCAR5 cells
T1 sequence (Q9HBX9 1-757): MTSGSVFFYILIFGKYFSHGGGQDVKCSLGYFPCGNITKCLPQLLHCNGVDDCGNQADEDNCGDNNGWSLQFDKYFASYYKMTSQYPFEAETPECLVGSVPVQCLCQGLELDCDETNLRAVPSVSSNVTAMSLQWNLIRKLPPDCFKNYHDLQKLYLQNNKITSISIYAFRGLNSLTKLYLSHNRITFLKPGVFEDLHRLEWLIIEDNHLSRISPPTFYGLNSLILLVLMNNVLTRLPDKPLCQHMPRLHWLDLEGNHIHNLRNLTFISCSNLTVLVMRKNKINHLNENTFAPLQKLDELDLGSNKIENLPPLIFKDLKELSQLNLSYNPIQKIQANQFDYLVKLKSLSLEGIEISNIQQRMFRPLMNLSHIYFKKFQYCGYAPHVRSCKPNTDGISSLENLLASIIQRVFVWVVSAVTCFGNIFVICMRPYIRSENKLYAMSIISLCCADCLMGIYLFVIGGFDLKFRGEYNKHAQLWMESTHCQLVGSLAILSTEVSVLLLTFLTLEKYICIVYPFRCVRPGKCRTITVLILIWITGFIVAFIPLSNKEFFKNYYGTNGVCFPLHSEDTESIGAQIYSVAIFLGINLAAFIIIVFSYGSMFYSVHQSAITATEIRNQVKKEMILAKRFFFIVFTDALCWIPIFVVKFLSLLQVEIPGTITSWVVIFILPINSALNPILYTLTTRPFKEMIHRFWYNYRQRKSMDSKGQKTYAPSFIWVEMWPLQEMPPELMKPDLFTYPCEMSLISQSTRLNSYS
Briefly: OVCAR5 cAMP assay (HTRF), RXFP1 agonist activity. Type of assay: cell-based. The note with it: for Emax: OVCAR-5, maximal cAMP relative to H2-relaxin maximum (100%), read-out: EMax, OVCAR 5 cells (cAMP); for EC50: OVCAR5 cells, cAMP HTRF, read-out: EC50 (nM), OVCAR 5 cells (cAMP). The source says:
OVCAR5 cells expressing endogenous RXFP1 were used to test RXP1 agonist properties of peptides of the invention, and in particular of the peptides of sequence SEQ ID NO: 1-193.
Since RXFP1 is a Gs coupled GPCR, cAMP was used as readout of RXFP1 activation.
Isobutyl Methyl Xanthine (IBMX) was used to inhibit phosphodiesterase activity facilitating cAMP measurements. HTRF (Homogenous Time Resolved Fluorescence) technology was used to detect cAMP due to its great sensitivity.
In summary, OVCAR5 were grown in regular medium (RPMI) containing 10% fetal calf serum (FCS) and 1% antibiotics (penicillin/streptomycin).
Before the experiments, cells were detached with accutase and incubated for 40 minutes at 37° C. with 1 mM (3-isobutyl-1-methylxanthine) IBMX.
Cells were then distributed in 384 black well plates containing increasing concentrations of the different peptides in a fix volume of medium (without FCS).
After an incubation of 30 min at 37° C. in an humid incubator in 5% CO2, the reaction was stopped by adding a fixed volume of a solution containing a lysis buffer and cAMP-D2 (cAMP labeled with the dye d2) and the anti cAMP antibody linked to Europium and used for cAMP detection.
Readout of the experiment were performed on a fluorimeter allowing HTRF measurement. Activation curves were generated by plotting the intracellular value of cAMP versus log 10 of the compound concentration.
The 50% activation concentration (EC50) was calculated by nonlinear regression using the sigmoidal dose-response (variable slope) equation with Prism 5 software.
Emax % is determined as the maximal intracellular value of cAMP for test compound (upper limit of cAMP vs concentration curve) divided by the maximal intracellular value of cAMP for H2-relaxin determined in the same test occasion multiplied by 100. Emax %=100×[cAMPtest cpd]/[cAMPH2-RlX]
(Changes in cAMP serve as a functional read-out for many G protein-coupled receptors.)

By Emax is commonly meant the greatest response seen or fitted, relative to the assay's reference. As for `CCCCCCCCCCCCCCCC(=O)N[C@@H](CCC(=O)N[C@@H](CCC(=O)N[C@@H](CCC(=O)NCCCC[C@H](NC(=O)COCCOCCNC(=O)[C@H](CCCCN)NC(=O)[C@H](CCCNC(=N)N)NC(=O)C(C)(C)NC(=O)[C@H](CO)NC(=O)[C@H](Cc1c[nH]c2ccccc12)NC(=O)[C@@H](NC(=O)[C@H](CO)NC(=O)[C@H](CCCC)NC(=O)CNC(=O)[C@H](CCC(=O)O)NC(=O)C(C)(C)NC(=O)C(C)(C)NC(=O)[C@@H](NC(=O)[C@H](CCC(N)=O)NC(=O)[C@H](C)NC(=O)[C@H](CCCNC(=N)N)NC(=O)[C@@H](NC(=O)[C@H](CCCCN)NC(=O)[C@H](CCC(=O)O)NC(=O)[C@H](CCCNC(=N)N)NC(=O)CNC(=O)[C@H](CCC(=O)O)NC(=O)[C@H](CC(C)C)NC(C)=O)C(C)C)[C@@H](C)CC)[C@@H](C)O)C(N)=O)C(=O)O)C(=O)O)C(=O)O` [compound 10] (Ac-LEGREKVRAQI[Aib][Aib]EG[Nle]STWS[Aib]RK[AEEA]K([γGlu-γGlu-γGlu-Palmitoyl])-NH2), the Emax turned out to be 96%.

With `CCCCCCCCCCCCCCCC(=O)N[C@@H](CCC(=O)N[C@@H](CCC(=O)N[C@@H](CCC(=O)NCCCC[C@H](NC(=O)COCCOCCNC(=O)COCCOCCNC(=O)[C@H](CCCCN)NC(=O)[C@H](CCCNC(=N)N)NC(=O)C(C)(C)NC(=O)[C@H](CO)NC(=O)[C@H](Cc1c[nH]c2ccccc12)NC(=O)[C@@H](NC(=O)[C@H](CO)NC(=O)[C@H](CCCC)NC(=O)CNC(=O)[C@H](CCC(=O)O)NC(=O)C(C)(C)NC(=O)C(C)(C)NC(=O)[C@@H](NC(=O)[C@H](CCC(N)=O)NC(=O)[C@H](C)NC(=O)[C@H](CCCNC(=N)N)NC(=O)[C@@H](NC(=O)[C@H](CCCCN)NC(=O)[C@H](CCC(=O)O)NC(=O)[C@H](CCCNC(=N)N)NC(=O)CNC(=O)[C@H](CCC(=O)O)NC(=O)[C@H](CC(C)C)NC(C)=O)C(C)C)[C@@H](C)CC)[C@@H](C)O)C(N)=O)C(=O)O)C(=O)O)C(=O)O` [compound 11] (Ac-LEGREKVRAQI[Aib][Aib]EG[Nle]STWS[Aib]RK[AEEA][AEEA]K([γGlu-γGlu-γGlu-Palmitoyl])-NH2), the Emax came out at 89%.

The term EC50 denotes the midpoint of the concentration-response curve. On to `CCCCCCCCCCCCCCCC(=O)N[C@@H](CCC(=O)N[C@@H](CCC(=O)N[C@@H](CCC(=O)NCCOCCOCC(=O)NCCCC[C@H](NC(=O)COCCOCCNC(=O)[C@H](CCCCN)NC(=O)[C@H](CCCNC(=N)N)NC(=O)C(C)(C)NC(=O)[C@H](CO)NC(=O)[C@H](Cc1c[nH]c2ccccc12)NC(=O)[C@@H](NC(=O)[C@H](CO)NC(=O)[C@H](CCCC)NC(=O)CNC(=O)[C@H](CCC(=O)O)NC(=O)C(C)(C)NC(=O)C(C)(C)NC(=O)[C@@H](NC(=O)[C@H](CCC(N)=O)NC(=O)[C@H](C)NC(=O)[C@H](CCCNC(=N)N)NC(=O)[C@@H](NC(=O)[C@H](CCCCN)NC(=O)[C@H](CCC(=O)O)NC(=O)[C@H](CCCNC(=N)N)NC(=O)CNC(=O)[C@H](CCC(=O)O)NC(=O)[C@H](CC(C)C)NC(C)=O)C(C)C)[C@@H](C)CC)[C@@H](C)O)C(N)=O)C(=O)O)C(=O)O)C(=O)O` [compound 12] (Ac-LEGREKVRAQI[Aib][Aib]EG[Nle]STWS[Aib]RK[AEEA]K([AEEA-γGlu-γGlu-γGlu-Palmitoyl])-NH2), for which the EC50 was found to be 26.7 nM and the Emax stood at 76%.

As to `CCCCCCCCCCCCCCCC(=O)N[C@@H](CCC(=O)N[C@@H](CCC(=O)N[C@@H](CCC(=O)NCCOCCOCC(=O)NCCOCCOCC(=O)NCCCC[C@H](NC(=O)COCCOCCNC(=O)[C@H](CCCCN)NC(=O)[C@H](CCCNC(=N)N)NC(=O)C(C)(C)NC(=O)[C@H](CO)NC(=O)[C@H](Cc1c[nH]c2ccccc12)NC(=O)[C@@H](NC(=O)[C@H](CO)NC(=O)[C@H](CCCC)NC(=O)CNC(=O)[C@H](CCC(=O)O)NC(=O)C(C)(C)NC(=O)C(C)(C)NC(=O)[C@@H](NC(=O)[C@H](CCC(N)=O)NC(=O)[C@H](C)NC(=O)[C@H](CCCNC(=N)N)NC(=O)[C@@H](NC(=O)[C@H](CCCCN)NC(=O)[C@H](CCC(=O)O)NC(=O)[C@H](CCCNC(=N)N)NC(=O)CNC(=O)[C@H](CCC(=O)O)NC(=O)[C@H](CC(C)C)NC(C)=O)C(C)C)[C@@H](C)CC)[C@@H](C)O)C(N)=O)C(=O)O)C(=O)O)C(=O)O` [compound 13] (Ac-LEGREKVRAQI[Aib][Aib]EG[Nle]STWS[Aib]RK[AEEA]K([AEEA-AEEA-γGlu-γGlu-γGlu-Palmitoyl])-NH2), the Emax came out at 81%.

For `CCCCCCCCCCCCCCCCCC(=O)N[C@@H](CCC(=O)N[C@@H](CCC(=O)N[C@@H](CCC(=O)N[C@@H](CCC(=O)NCCCC[C@H](NC(=O)COCCOCCNC(=O)COCCOCCNC(=O)COCCOCCNC(=O)COCCOCCNC(=O)[C@H](CCCCN)NC(=O)[C@H](CCCCN)NC(=O)[C@H](CCCNC(=N)N)NC(=O)C(C)(C)NC(=O)[C@H](CO)NC(=O)[C@H](Cc1c[nH]c2ccccc12)NC(=O)[C@@H](NC(=O)[C@H](CO)NC(=O)[C@H](CCCC)NC(=O)CNC(=O)[C@H](CCC(=O)O)NC(=O)C(C)(C)NC(=O)C(C)(C)NC(=O)[C@@H](NC(=O)[C@H](CCCCNC(C)=O)NC(=O)[C@H](C)NC(=O)[C@H](CCCNC(=N)N)NC(=O)[C@@H](NC(=O)[C@H](CCCCN)NC(=O)[C@H](CCC(=O)O)NC(=O)[C@H](CCCNC(=N)N)NC(=O)CNC(=O)[C@H](CCC(=O)O)NC(=O)[C@H](CC(C)C)NC(C)=O)C(C)C)[C@@H](C)CC)[C@@H](C)O)C(N)=O)C(=O)O)C(=O)O)C(=O)O)C(=O)O` [compound 15] (Ac-LEGREKVRAK(Ac)I[Aib][Aib]EG[Nle]STWS[Aib]RKK[AEEA][AEEA][AEEA][AEEA]K([γGlu-γGlu-γGlu-γGlu-Stearoyl])-NH2), the EC50 came out at 0.32 nM and the Emax is 92%.

For `CCCCCCCCCCCCCCCCCC(=O)N[C@@H](CCC(=O)N[C@@H](CCC(=O)N[C@@H](CCC(=O)NCCCC[C@H](NC(=O)COCC(=O)NCCCOCCOCCOCCCNC(=O)[C@H](CCCCNC(C)=O)NC(=O)[C@H](CCCCN)NC(=O)[C@H](CCCNC(=N)N)NC(=O)C(C)(C)NC(=O)[C@H](CO)NC(=O)[C@H](Cc1c[nH]c2ccccc12)NC(=O)[C@@H](NC(=O)[C@H](CO)NC(=O)[C@H](CCCC)NC(=O)CNC(=O)[C@H](CCC(=O)O)NC(=O)C(C)(C)NC(=O)C(C)(C)NC(=O)[C@@H](NC(=O)[C@H](CCCCNC(C)=O)NC(=O)[C@H](C)NC(=O)[C@H](CCCNC(=N)N)NC(=O)[C@@H](NC(=O)[C@H](CCCCN)NC(=O)[C@H](CCC(=O)O)NC(=O)[C@H](CCCNC(=N)N)NC(=O)CNC(=O)[C@H](CCC(=O)O)NC(=O)[C@H](CC(C)C)NC(C)=O)C(C)C)[C@@H](C)CC)[C@@H](C)O)C(N)=O)C(=O)O)C(=O)O)C(=O)O` [compound 18] (Ac-LEGREKVRAK(Ac)I[Aib][Aib]EG[Nle]STWS[Aib]RKK(Ac)-X9), the EC50 is 0.41 nM and the Emax was 83%.

In the case of `CCCCCCCCCCCCCCCCCC(=O)NCCCC[C@H](NC(=O)CCOCCOCCOCCOCCOCCOCCOCCOCCOCCOCCOCCOCCNC(=O)[C@H](CCCCNC(C)=O)NC(=O)[C@H](CCCCN)NC(=O)[C@H](CCCNC(=N)N)NC(=O)C(C)(C)NC(=O)[C@H](CO)NC(=O)[C@H](Cc1c[nH]c2ccccc12)NC(=O)[C@@H](NC(=O)[C@H](CO)NC(=O)[C@H](CCCC)NC(=O)CNC(=O)[C@H](CCC(=O)O)NC(=O)C(C)(C)NC(=O)C(C)(C)NC(=O)[C@@H](NC(=O)[C@H](CCC(N)=O)NC(=O)[C@H](C)NC(=O)[C@H](CCCNC(=N)N)NC(=O)[C@@H](NC(=O)[C@H](CCCCN)NC(=O)[C@H](CCC(=O)O)NC(=O)[C@H](CCCNC(=N)N)NC(=O)CNC(=O)[C@H](CCC(=O)O)NC(=O)[C@H](CC(C)C)NC(C)=O)C(C)C)[C@@H](C)CC)[C@@H](C)O)C(N)=O` [compound 21] (Ac-LEGREKVRAQI[Aib][Aib]EG[Nle]STWS[Aib]RKK(Ac)[PEG12]K(Stearoyl)-NH2), the Emax was found to be 88%.
